Assay results from patent US7786121B2, “Derivatives of hydroxamic acid as metalloproteinase inhibitors” (Vernalis (Oxford) Limited, priority 2003, dated 2010).

Key:
92 kDa gelatinase (MMP9) = 92 kDa gelatinase (MMP9) (Homo sapiens, UniProt P14780); test: MMP9 enzyme inhibition assay, coumarin-labelled peptide substrate; assay type: biochemical; details: recombinant human MMP-9, 37° C., 2 hours; read-out: MMP-9 (nM) inhibitory activity
Method: (§1) Compounds of the invention were tested for inhibitory activity against 92 kDa gelatinase (MMP9) in an assay using a coumarin-labelled peptide substrate, (7-methoxycoumarin-4-yl)acetyl-Pro-Leu-Gly-Leu-(3-[2,4-dinitrophenyl]-L-2,3-diaminopropionyl)-Ala-Arg-NH2 (McaPLGLDpaAR) (Knight et al, FEBS Lett. 1992; 263-266).
(§2) Stock solutions were made up as follows: • Assay Buffer: 100 mM Tris-HCl pH 7.6 containing 100 mM NaCl, 10 mM CaCl2, and 0.05% Brij 35 • Substrate: 0.4 mM McaPLGLDpaAR (from Bachem) (0.437 mg/ml) stock solution in 100% • DMSO (stored at −20° C.). Dilute to 8 μM in assay buffer. • Enzyme: Recombinant human 92 kDa gelatinase (MMP-9; APMA (4-aminophenylmercuric acetate)-activated if necessary) appropriately diluted in assay buffer.
(§3) Test Compounds were prepared initially as 10 mM compound solution in 100% DMSO, diluted to 1 mM in 100% DMSO, then serially diluted 3-fold in 100% DMSO across columns 1-10 of a 96-well microtitre plate Assay concentration range, 100 μM (column 1) to 5.1 nM (column 10)
(§4) The assay was performed in a total volume of 100 μl upper well in 96-well microtitre plates. Activated enzyme (20 μl) was added to the wells followed by 20 μl of assay buffer. Appropriate concentrations of test compounds dissolved in 10 μl of DMSO were then added followed by 50 μl of McaPLGLDpaAR (8 μM, prepared by dilution of DMSO stock in assay buffer). For each assay ten concentrations of test compound were examined in duplicate. Control wells lack either enzyme or test compound. The reactions were incubated at 37° C. for 2 hours. The fluorescence at 405 nm was measured immediately with an SLT Fluostar fluorometer (SLT Labinstruments GmbH, Grödig, Austria) using 320 nm excitation, without stopping the reaction.
(§5) The effect of the test compound was determined from the dose response curve generated by the 10 duplicate concentrations of inhibitor. The IC50 (the concentration of compound required to give a 50% decrease in enzyme activity) was obtained by fitting data to the equation, Y=a+((b−a)/(1+(c/X)^d)). (Y=inhibition achieved for a particular dose; X=the dose in nM; a=minimum y or zero % inhibition; b=maximum y or 100% inhibition; c=is the IC50; d=is the slope). The result was rounded to one significant figure.

MMP-2 = target: T1, MMP-2 (Homo sapiens, UniProt P08253); test: MMP-2 enzyme inhibition; assay type: biochemical; details: read-out: MMP-2 (nM) inhibitory activity
T1 sequence (P08253 110-660): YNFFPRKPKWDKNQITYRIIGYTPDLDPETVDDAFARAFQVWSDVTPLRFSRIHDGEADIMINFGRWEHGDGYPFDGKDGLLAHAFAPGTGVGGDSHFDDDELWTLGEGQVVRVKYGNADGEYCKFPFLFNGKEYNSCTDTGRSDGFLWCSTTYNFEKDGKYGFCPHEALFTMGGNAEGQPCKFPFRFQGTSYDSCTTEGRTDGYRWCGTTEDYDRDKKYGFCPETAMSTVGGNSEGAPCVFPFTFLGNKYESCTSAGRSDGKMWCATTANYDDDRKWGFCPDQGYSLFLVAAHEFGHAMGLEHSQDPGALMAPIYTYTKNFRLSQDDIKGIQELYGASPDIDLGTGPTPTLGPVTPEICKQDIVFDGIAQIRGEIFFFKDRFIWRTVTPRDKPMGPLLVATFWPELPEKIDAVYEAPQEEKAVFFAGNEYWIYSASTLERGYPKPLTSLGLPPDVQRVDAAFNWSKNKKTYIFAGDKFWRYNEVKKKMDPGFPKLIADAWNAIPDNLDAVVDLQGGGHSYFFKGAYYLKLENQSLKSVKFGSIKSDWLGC
Description: For instance the inhibitory activities of some of the compounds of the examples against MMP-12, MMP-9, MMP-2 and MMP-1 are set out in the following table: […]

collagenase (MMP1) = target: T2, collagenase (MMP1) (Homo sapiens, UniProt P03956); test: MMP1 enzyme inhibition assay, coumarin-labelled peptide substrate; assay type: biochemical; details: read-out: MMP-1 (nM) inhibitory activity
T2 sequence (P03956 100-469): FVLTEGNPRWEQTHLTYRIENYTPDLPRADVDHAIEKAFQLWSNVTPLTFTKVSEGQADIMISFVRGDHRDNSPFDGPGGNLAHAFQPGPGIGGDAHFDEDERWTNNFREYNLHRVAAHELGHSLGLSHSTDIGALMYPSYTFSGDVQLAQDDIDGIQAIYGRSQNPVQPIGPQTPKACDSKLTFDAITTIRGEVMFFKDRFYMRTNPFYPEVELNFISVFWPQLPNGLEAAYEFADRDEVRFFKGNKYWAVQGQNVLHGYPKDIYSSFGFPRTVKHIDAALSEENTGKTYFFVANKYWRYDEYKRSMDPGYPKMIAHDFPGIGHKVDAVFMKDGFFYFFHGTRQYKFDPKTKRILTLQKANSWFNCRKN
Method: as §2, §3, §4, §5
as §1, with “collagenase (MMP1)” for “92 kDa gelatinase (MMP9)”, “263-266). The protocol for this assay was as described for the MMP9 assay above.” for “263-266).”

metalloelastase (MMP12) = metalloelastase (MMP12) (Homo sapiens, UniProt P39900); test: MMP12 enzyme inhibition assay, coumarin-labelled peptide substrate; assay type: biochemical; details: read-out: MMP-12 (nM) inhibitory activity
metalloelastase (MMP12), sequence (P39900 106-470): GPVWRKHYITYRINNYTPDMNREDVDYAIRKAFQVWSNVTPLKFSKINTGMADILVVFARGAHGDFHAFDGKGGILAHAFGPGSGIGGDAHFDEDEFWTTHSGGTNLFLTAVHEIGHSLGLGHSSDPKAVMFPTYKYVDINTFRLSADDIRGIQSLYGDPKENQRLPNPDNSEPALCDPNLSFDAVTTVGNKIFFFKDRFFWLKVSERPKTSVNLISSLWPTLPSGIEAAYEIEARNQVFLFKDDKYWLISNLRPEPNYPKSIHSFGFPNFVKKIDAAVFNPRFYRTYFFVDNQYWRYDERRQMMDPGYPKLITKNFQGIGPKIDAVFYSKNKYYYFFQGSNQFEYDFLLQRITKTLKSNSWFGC
Method: as §2, §3, §4, §5
as §1, with “metalloelastase (MMP12)” for “92 kDa gelatinase (MMP9)”, “263-266). The protocol for this assay was as described for the MMP9 assay above.” for “263-266).”

[1] = test system: IL2-induced peritoneal recruitment of lymphocytes; test: IL2-induced peritoneal recruitment of lymphocytes in mice; assay type: in vivo; details: C3H mice
Method: B. Biological Assay: IL2-Induced Peritoneal Recruitment of Lymphocytes in Mice Protocol
C3H Mice (Elevage Janvier) (8 week old, n=6) received IL2 (SPRI, 20 μg/kg, 40 ml/kg, ip) 15 min after administration of the test molecules. Twenty-four hours later, the animals were sacrificed and the lavage of the peritoneal cavity was conducted using 3×5 ml PBS-1 mM EDTA (+4° C.). After centrifugation (10 min at 3000 rpm), the pellet was resuspended in 1 ml PBS. The peritoneal cells were counted using a Beckman/Coulter counter. IL2 was solubilized in saline. The test compounds of the invention were solubilized or suspended in 0.5% carboxymethylcellulose (CMC)/0.25% Tween-20 and orally administered. […]

[2] = 3 mg/kg po, 15 min before IL2 ip, cells counted 24 h later

92 kDa gelatinase (MMP9), sequence (P14780 107-707 limits assumed): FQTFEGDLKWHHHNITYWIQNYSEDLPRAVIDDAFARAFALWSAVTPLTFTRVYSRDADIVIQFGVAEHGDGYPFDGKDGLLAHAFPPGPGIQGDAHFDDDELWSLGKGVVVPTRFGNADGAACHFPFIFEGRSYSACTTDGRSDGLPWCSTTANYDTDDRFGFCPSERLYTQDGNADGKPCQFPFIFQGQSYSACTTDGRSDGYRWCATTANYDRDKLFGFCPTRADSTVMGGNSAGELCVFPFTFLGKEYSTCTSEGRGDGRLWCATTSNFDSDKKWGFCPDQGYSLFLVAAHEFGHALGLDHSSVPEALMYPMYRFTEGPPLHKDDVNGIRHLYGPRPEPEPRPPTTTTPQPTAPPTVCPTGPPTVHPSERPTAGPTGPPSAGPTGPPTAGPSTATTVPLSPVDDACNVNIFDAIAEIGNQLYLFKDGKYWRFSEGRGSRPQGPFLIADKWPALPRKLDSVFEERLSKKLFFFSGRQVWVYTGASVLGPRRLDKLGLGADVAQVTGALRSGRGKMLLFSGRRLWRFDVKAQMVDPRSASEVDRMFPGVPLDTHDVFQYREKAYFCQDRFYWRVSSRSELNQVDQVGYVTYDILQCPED

Row | Compound | IC50 (92 kDa gelatinase (MMP9)) [nM] | IC50 (MMP-2) [nM] | IC50 (collagenase (MMP1)) [nM] | IC50 (metalloelastase (MMP12)) [nM] | % Inhibition of IL2-induced peritoneal recruitment [1, 2] [%] | % Inhibition of IL2-induced peritoneal recruitment ([1]; 1 mg/kg sc (reference compound)) [%]
1 | CCOc1ccc(CCC[C@@H](C(=O)N2CCN(c3ccccn3)CC2)[C@H](O)C(=O)NO)cc1 [Example 5, 6-(4-ethoxy-phenyl)-2S-hydroxy-3R-(4-pyridin-2-yl-piperazine-1-carbonyl)-hexanoic acid hydroxyamide] | < 100 | < 100 | > 10000 | < 100 | 50 | –
2 | CCOc1ccc(CCC[C@@H](C(=O)N2CCN(Cc3ccncc3)CC2)[C@H](O)C(=O)NO)cc1 [Example 13, 6-(4-ethoxy-phenyl)-2S-hydroxy-3R-(4-pyridin-4-ylmethyl-piperazine-1-carbonyl)-hexanoic acid hydroxyamide] | < 100 | < 100 | > 10000 | < 100 | 47 | –
3 | CCOc1ccc(CCC[C@@H](C(=O)N2CCN(c3ccccc3F)CC2)[C@H](O)C(=O)NO)cc1 [Example 20, 6-(4-ethoxy-phenyl)-2S-hydroxy-3R-[4-(2-fluoro-phenyl)-piperazine-1-carbonyl]-hexanoic acid hydroxyamide] | < 100 | < 100 | > 10000 | < 100 | 57 | –
4 | CCOc1ccc(CCC[C@@H](C(=O)N2CCN(c3ccc(OC)cc3)CC2)[C@H](O)C(=O)NO)cc1 [Example 4, 6-(4-ethoxy-phenyl)-2S-hydroxy-3R-[4-(4-methoxy-phenyl)-piperazine-1-carbonyl]-hexanoic acid hydroxyamide] | < 100 | < 100 | > 10000 | < 100 | 34 | –
5 | CCOc1ccc(CCC[C@@H](C(=O)N2CCN(Cc3ccc4c(c3)OCO4)CC2)[C@H](O)C(=O)NO)cc1 [Example 12, 3R-(4-benzo[1,3]dioxol-5-ylmethyl-piperazine-1-carbonyl)-6-(4-ethoxy-phenyl)-2S-hydroxy-hexanoic acid hydroxyamide] | < 100 | < 100 | > 10000 | < 100 | – | –
6 | C[C@@H]1C[C@H]2[C@@H]3CCC4=CC(=O)C=C[C@]4(C)[C@@]3(F)[C@@H](O)C[C@]2(C)[C@@]1(O)C(=O)CO [Dexamethazone, Dexamethasone, reference compound] | – | – | – | – | – | 76
7 | CCOc1ccc(CCC[C@@H](C(=O)N2CCN(Cc3ccccc3)CC2)[C@H](O)C(=O)NO)cc1 [Example 14, 6-(4-ethoxy-phenyl)-2S-hydroxy-3R-(4-benzylpiperazine-1-carbonyl)-hexanoic acid hydroxyamide] | < 100 | < 100 | > 10000 | < 100 | 30 | –
8 | CCOc1ccc(CCC[C@@H](C(=O)N2CCN(c3ccncc3)CC2)[C@H](O)C(=O)NO)cc1 [Example 6, 6-(4-ethoxy-phenyl)-2S-hydroxy-3R-(4-pyridin-4-yl-piperazine-1-carbonyl)-hexanoic acid hydroxyamide] | 100 to 1000 | 100 to 1000 | > 10000 | < 100 | 33 | –
9 | CCOc1ccc(CCC[C@@H](C(=O)N2CCN(c3ccccc3F)CC2)[C@H](OC)C(=O)NO)cc1 [Example 62, 6-(4-ethoxy-phenyl)-2S-methoxy-3R-[4-(2-fluoro-phenyl)-piperazine-1-carbonyl]-hexanoic acid hydroxyamide] | < 100 | < 100 | > 10000 | < 100 | – | –
